Here are results for one sequence from patent US11548925B2, “CACNA1H-derived tumor antigen polypeptide and use thereof” (Genoimmune Therapeutics Co., Ltd., priority 2016, dated 2023).

One experiment concerns CD8+ T cells. Put plainly: ELISPOTs detection of IFN-γ secretion by peptide-specific CD8+ T cells. In kind it is cell-based, human. The text has this: In this example, a ELISPOTs detection kit (Cat. No.: 3420-4AST-10, MABTECH) was used to verify the activation of an immune response of CD8+ T cells by the peptides of the present invention.
Principle of the ELISPOTs detection method is as follows: CD8+ T cells can specifically recognize the complex of HLA-A0201 and a peptide. The population of T cells recognizing the complex of the peptide and HLA-A0201 is varying, depending on the peptide sequence. Since T2 cells express HLA-A0201, CD8+ T cells can specifically recognize the T2 cells loaded with a peptide. After specific recognition of the complex of HLA-A0201 and the peptide, peptide-specific CD8+ T cells can be activated again to secrete IFN-γ interferon. The IFN-γ interferon secreted by the activated CD8+ T cells can be captured by antibodies on the ELISPOTs plate. Finally, the enzyme-conjugated antibody that recognizes IFN-γ can degrade the substrate through the enzyme conjugated thereto and develop color, eventually producing spots. The number of spots represents the number of cells that are activated to secrete IFN-γ interferon.
The cultured cells from Example 3 were added, along with T2 cells loaded with the mutant peptide […] (SEQ ID NO: 2) of the present invention and the wild-type peptide […] (SEQ ID NO: 1), respectively, into ELISPOTs plates, and cultured for 20 h, and then a ELISPOTs detection was performed (see the kit instruction). Finally, the spots produced by the ELISPOTs detection were counted.
The peptide was determined to have immunogenicity when the number of spots of the tested peptide/the number of spots of an unrelated peptide>2; that is, if the number of spots caused by the tested peptide is more than twice than that of an unrelated peptide, the tested peptide is determined to have immunogenicity.

The test system of another experiment is T2 cells. Put plainly: LDH release assay, killing of peptide-loaded T2 target cells by CD8+ T cells. In kind it is cell-based, human. To be noted: for Killing efficiency: 4 h. Here is the method:
The cells cultured in Example 3 were co-cultured with T2 cells loaded with the mutant peptides of the present invention or the wild-type peptide or without a peptide. A maximum release well, a volume correction well, a medium control well, a spontaneous release well and control wells for example at different effector-to-target ratios (ratios of T cells to T2 cells) were set in this experiment. Three replicate wells were set for each group. After 4 h, 50 μl of the co-culture supernatant was taken out and added to 50 μl of LDH substrate mixture to catalyze the reaction of LDH substrate. Finally, the plates were read at a wavelength of 490 nm, with a reference wavelength of 680 nm, and the killing activity against target cells T2 was calculated based on the control wells.
The formula for calculating the killing activity is: Killing efficiency (%)=(test well−spontaneous release of effector cells−spontaneous release of target cells+medium well)/(maximum release of target cells−volume correction well−spontaneous release of target cells+medium well)×100%

Consider “TLISSLMPI [tumor antigen peptide from CACNA1H mutation, position 1428 arginine to methionine]”, for which the “Conclusion (immunogenicity)” value in the experiment on CD8+ T cells (ELISPOTs) is on record as “immunogenic”. Also, the “Number of spots in the mutant peptide group” value in the experiment with CD8+ T cells (T cells activated by the listed peptide, T2 cells loaded with TLISSLMPI, 20 h) is on record as 306. Further, the “Number of spots in the wild-type peptide group” value in the experiment with CD8+ T cells (T cells activated by the listed peptide, T2 cells loaded with TLISSLRPI, 20 h) is recorded as 33. In addition, the Killing efficiency turned out to be 7.96% in the experiment with T2 cells (effector-to-target ratio 1:1, target T2 loaded with TLISSLMPI); 2.23% in the experiment with T2 cells (effector-to-target ratio 1:1, target T2 loaded with wild-type TLISSLRPI); 38.89% in the experiment with T2 cells (effector-to-target ratio 10:1, target T2 loaded with TLISSLMPI); 4.23% with T2 cells (effector-to-target ratio 10:1, target T2 loaded with wild-type TLISSLRPI). For the same sequence, in the experiment with T2 cells (effector-to-target ratio of 1:1 or 1:10 as printed), the “Specific killing of target cells (in words)” value was “capable of killing T2 cells presenting the mutant peptide, but not the T2 cells presenting a wild-type peptide”.
